Measurements taken from patent publication US20220259593A1, “CONTROL OF MAMMALIAN GENE DOSAGE USING CRISPR” (The Regents of the University of California, priority 2019, published 2022).

Tested on: K562 CRISPRi cells
Test: Perturb-seq pooled growth measurement (sgRNA counts, growth phenotype γ, relative activity)
Assay type: cell-based, human
Details: sequencing read counts; for Perturb-seq pooled growth sgRNA counts, d5: 5 days of growth (day seven after transduction); for Perturb-seq pooled growth sgRNA counts, d10: 10 days of growth (day twelve after transduction); for Perturb-seq pooled growth sgRNA counts, T0: T0 = day two after transduction
Summary of the method: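 CRISPRi K562 cells from the Perturb-seq transduced pool; 500,000-cell samples taken days two, seven and twelve post-transduction. sgRNA amplicons from genomic DNA sequenced; growth phenotypes from normalized sgRNA abundances at days seven and twelve versus day two. Relative activity assigned from day seven (five days' growth).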

Row | Substance | Perturb-seq pooled growth sgRNA counts, d5 | Perturb-seq pooled growth sgRNA counts, d10 | Perturb-seq pooled growth sgRNA counts, T0
1 | HSPA5_+_128003624.23-P1P2_06: sgRNA targeting HSPA5, GAGCCGAGTAGACGACGGTG, SEQ ID NO: 92 (listed as DNA, chemistry not fully specified) | 17649 | 23714 | 10180
2 | MTOR_+_11322547.23-P1P2_10: sgRNA targeting MTOR, GGGCAGGGGGCCTGAAGCAG, SEQ ID NO: 150 (listed as DNA, chemistry not fully specified) | 7332 | 7827 | 7076
3 | RPL9_+_39460483.23-P1P2_05: sgRNA targeting RPL9, GGATGTTTCGGTGCTCGTGG, SEQ ID NO: 52 (listed as DNA, chemistry not fully specified) | 2217 | 2355 | 4950
4 | BCR_+_23523092.23-P1P2_13: sgRNA targeting BCR, GCGCGCGGGGCCCATCTCAG, SEQ ID NO: 130 (listed as DNA, chemistry not fully specified) | 5668 | 7063 | 4304
5 | SEC61A1_−_127771295.23-P1_04: sgRNA targeting SEC61A1, GGCACTGAAGTGTCTCTCGG, SEQ ID NO: 87 (listed as DNA, chemistry not fully specified) | 7999 | 10772 | 5081
6 | RPS14_+_149829238.23-P1P2_02: sgRNA targeting RPS14, GAGGCCCTGGCGCGACAATC, SEQ ID NO: 47 (listed as DNA, chemistry not fully specified) | 5497 | 5538 | 11519
7 | GINS1_−_25388381.23-P1P2_08: sgRNA targeting GINS1, GGACTAGAGCGAAAGGAGTG, SEQ ID NO: 94 (listed as DNA, chemistry not fully specified) | 2461 | 1756 | 18173
8 | RPS18_+_33239917.23-P1P2_02: sgRNA targeting RPS18, GCTGGGATGCCGCTGGATCA, SEQ ID NO: 42 (listed as DNA, chemistry not fully specified) | 3404 | 3757 | 5486
9 | POLR1D_+_28196016.23-P1_03: sgRNA targeting POLR1D, GGTAAGCAAGGACCGACCGA, SEQ ID NO: 75 (listed as DNA, chemistry not fully specified) | 2365 | 933 | 10266
10 | CAD_+_27440280.23-P1P2_06: sgRNA targeting CAD, GGCTGGAGAGTAGCCGGGCG, SEQ ID NO: 104 (listed as DNA, chemistry not fully specified) | 4967 | 4365 | 6199
11 | non-targeting_00802: non-targeting negative control sgRNA, GCACGACGCTCCGGCACGCG, SEQ ID NO: 169 (listed as DNA, chemistry not fully specified) [reference compound] | 16759 | 27842 | 7096
12 | ATP5E_−_57607036.23-P1P2_00: sgRNA targeting ATP5E, GGTGTCCAGGGGCACTCTGT, SEQ ID NO: 151 (listed as DNA, chemistry not fully specified) | 12109 | 9475 | 8197
